Here are results for five compounds from patent publication US20230000795A1, “LIPID CRYSTALLINE COMPOSITIONS WITH ENHANCED STABILITY FOR TOPICAL DELIVERY OF ACTIVE AGENT COMBINATIONS” (Ankh Life Sciences Limited, priority 2021, published 2023).

What is called solubility is the dissolved amount per volume that the medium holds. For orientation: IC50 means the point on the concentration scale where inhibition reaches its midpoint.

Data set [1] can be described thus: In vitro permeation test through pig skin, infinite dose (150 mg, 230 mg/cm^2), Bronaugh flow-through cells. The following applies: for Cumulative amount permeated: after application of 6% GZ17-6.02 cream batch, mean±SD. The protocol: Epidermal accumulation is significant due to the desired site of drug action on keratinocytes in actinic keratosis.
Three formulations were used in this experiment.
PBS buffer with 2% (w/w) Brij will be used as receptor solution.
The equipment used is Bronaugh diffusion cells. Parameters of the experiment is described in tables below. Analyses were performed according to RP-HPLC assay with additional calibration standard solutions. […] For the amount found in the tissue values both with and without cell 11 and 12 are reported.
After the in vitro experiment was terminated each membrane was washed, dismounted and prepared according to the following procedure: • 1. Wash the membrane six times with 0.5 ml PBS buffer and collect the PBS in the wash fraction tubes. • 2. Dismount the cells and gently clean the membranes with PBS moisture tops. Collect the tops in the wash fraction tubes. • 3. Gently separate […] from dermis by peeling the membrane and collect in a test tube. • 4. Cut out the cell flange (the unexposed skin) with a 10 mm punch and collect the material in a test tube. • 5. Cut the dermis into thin strips with a scalpel and collect the material in a test tube 1.5 ml.
Analysis of receptor solution and extractions from epidermis and dermis were performed by RP-HPLC.
Receptor solution were analyzed without any further treatment.
Tissue samples were treated according to the following procedure: • 1. […] Vortex the sample and sonicate for 30 minutes in cold water (2-8° C. add ice to the bath). • 3. The samples should then be centrifuged at 14000 rpm and transferred to HPLC vial for analysis.

A short description of data set [2]: Solubility in receptor solution (PBS with 0.1% Brij). It counts as physicochemical. Particulars: aqueous with cosolvent or surfactant or cyclodextrin, thermodynamic from solid. The protocol: Excess of GZ17-6.02 were added to the solvent, which were stirred for 1 hour and incubated at 32° C. for 24 h. Thereafter the sample was centrifuged or filtrated and the solubility determined by HPLC method DM.216.03[4] or DM.217.01 [5]. One sample was prepared and duplicate injections were analysed.

Data set [3] in a line: Solubility of the active ingredients in aqueous GZ17-6.02 solutions. Type of data set: physicochemical. The following applies: aqueous GZ17-6.02 solution. An excerpt:
By comparison, in one study, the solubility of the active ingredients in aqueous GZ17-6.02 solutions (not the lipid crystalline formulation) was first analyzed. […]

Data set [4] has as its system actinic keratosis cell line HaCaT. The data set can be described thus: Growth inhibition of EGF-stimulated HaCaT cells (Cell Titer Glo). Type of data set: cell-based. The following applies: for IC50: Homo sapiens. The protocol:
To investigate the mechanisms by which these pathways are affected, GZ17-6.02 was administered to the actinic keratosis cell line HT297.T in vitro and changes in signalling within various pathways were measured 6 hours post administration with cell death measured 24 hours post administration. […] 5-Fluorouracil was tested at a concentration of 50 uM.
Materials and Methods: A Cell Titer Glo assay was used to determine the sensitivity of EGF-stimulated HaCaT cells to GZ21T. Annexin-V assay was utilized to assess the pro-apoptotic effects of GZ21T on HaCaT cells, and the mechanism was clarified by western blot. AK lesions were induced in Female SKH-1 mice by exposing them to UVB radiation (500 J/m2) five times weekly for ten weeks. Mice were subsequently treated with 0.25 grams topical GZ21T or control cream five days per week. At the studies endpoint, lesional samples were collected from control and GZ21T treated mice and were subjected to RNA-sequencing and reverse phase protein arrays (RPPA). Gene set enrichment analysis (GSEA) was performed using the KEGG database as reference to identify the top pathways altered by GZ21T treatment. Gene set variation analysis (GSVA) was used to assess GZ21T's effect on pathways previously implicated in the pathogenesis of AK. Enrichment analysis was also performed on proteins showing decreased expression following GZ21T treatment using Enrichr with the KEGG database as reference.
(In general: In ATP-based viability assays light output follows the ATP content of the culture.)

Data set [5] is described as follows: IVPT on pig skin, finite dose 10 mg/cm^2, 3% and 6% GZ17-6.02 monoglyceride cream. The following applies: after 24 h. The protocol: Wash the membrane six times with 0.5 ml PBS buffer and collect the PBS in the wash fraction tubes. • 2. Dismount the cells and gently clean the membranes with PBS moisture tops. Collect the tops in the wash fraction tubes. • 3. Gently separate […] from dermis by peeling the membrane and collect in a test tube. • 4. Cut out the cell flange (the unexposed skin) with a 10 mm punch and collect the material in a test tube. • 5. […] The samples should then be centrifuged at 14000 rpm and transferred to HPLC vial for analysis.

Setting [6] is: after application of 6% GZ17-6.02 cream.
[7] abbreviates: PBS buffer with 0.1% Brij, 32° C., 24 h, read-out: Solubility in receptor solution.
[8] abbreviates: same experimental methods (FIG. 6), read-out: IC50.
Setting [9] is: pig, 24 h, 6 % GZ17-6.02 in cream.

Converted amounts (≈) assume the structure as drawn. “And” between values parts separate entries of the source, which are not always exact repeats. Equal entries are not always repeated. Where two headings read alike, the source gives them in different places.

On to `COc1ccc2c(c1)[nH]c1c(C)nccc12` [Harmine, 7-methoxy-1-methyl-9H-pyrido[3,4-b]indole], for which, in data set [1] (setting [6]), the “Amount adsorbed into dermis” value turned out to be 38.9 ± 24.4 µg/g and the “Amount adsorbed into epidermis” value worked out at 585.5 ± 227.8 µg/g. Further, the “Maximum obtained concentration in the receptor solution” value (“Maximum obtained concentration” for short) in data set [1] (previous IVPT experiment) was 0.13 µg/mL. In addition, in data set [2] (setting [7]), the solubility at 24 h was found to be 50 µg/mL (≈ 236 µM). Besides, in data set [3] (pH 4.3), the “Solubility at 2-8° C.” value is listed as >1.56 % w/w and the “Solubility at 25° C.” value is recorded as >1.56 % w/w. Moreover, in data set [3] (pH 7.0), the “Solubility at 2-8° C.” value came to 0.0014 % w/w and the “Solubility at 25° C.” value is 0.0034 % w/w. For the same compound, the IC50 in data set [4] (read-out: IC50 as Monotherapy) was 2.55 µg/mL and 12 µM.

For `O=c1[nH]cc(F)c(=O)[nH]1` [5-Fluorouracil, reference compound], in data set [4] (setting [8]), the IC50 came out at 4.8 µM.

Take `COc1cc(/C=C/C(=O)CC(=O)/C=C/c2ccc(O)c(OC)c2)ccc1O` [Curcumin, 1,7-bis(4-hydroxy3-methoxyphenyl)-1,6-heptadiene-3,5-dione]: the “Maximum obtained concentration” value in data set [1] (pig, 6 % GZ17-6.02 in cream) was determined as 0 µg/mL. In data set [1] (setting [9]), the “Amount adsorbed into dermis” value came out at 0.40 ± 0.23 µg/g and the “Amount adsorbed into epidermis” value stood at 3.82 ± 1.88 µg/g. Also, in data set [2] (32 °C), the solubility at 24 h is 10 µg/mL (≈ 27.1 µM). In addition, in data set [4] (API alone), the “IC50 as Monotherapy” value was found to be 0.736 µg/mL (≈ 2 µM). Further, the IC50 in data set [4] (API alone, read-out: IC50 as Monotherapy) is 0.774 µg/mL and 2 µM.

In the case of `O=C(O)Cc1ccccc1Nc1c(Cl)cccc1Cl` [diclofenac, reference compound], the 50% inhibitory concentration (IC50) in data set [4] (setting [8]) stood at 602 µM.

Regarding `COc1ccc(C=O)cc1O` [Isovanillin], the Cumulative amount permeated in data set [1] (2 h) was 35.0 ± 20.7 μg/cm^2; in data set [1] (4 h), 103.4 ± 47.6 μg/cm^2; in data set [1] (6 h), 169.3 ± 66.1 μg/cm^2; in data set [1] (8 h), 209.5 ± 74.4 μg/cm^2; in data set [1] (24 h), 208 μg/cm^2 and 207.9 ± 95.2 μg/cm^2. Besides, the “Applied dose permeated when deviation from the linear regime (depletion) occurs” value in data set [1] (after 6-8 hours) was “about 1.5%”. Moreover, in data set [1] (setting [6]), the “Amount adsorbed into dermis” value was determined as 29.4 ± 19.3 µg/g. Also, the “Amount adsorbed into epidermis” value in data set [1] (setting [6]) is 181.2 ± 118.3 µg/g. Also, the Systemic adsorption in data set [1] (extrapolated from in vitro 24 h permeation to a treated area of 25 cm^2) was 5.2 mg. Further, the “Maximum obtained concentration” value in data set [1] (previous IVPT experiment) came to 18 µg/mL. In data set [2] (setting [7]), the solubility at 24 h was 3960 ± 30 µg/mL (≈ 26000 µM). Moreover, the “Solubility at 2-8° C.” value in data set [3] (pH 4.3) is reported as 0.27 % w/w; in data set [3] (pH 7.0), 0.18 % w/w. Moreover, the “Solubility at 25° C.” value in data set [3] (pH 4.3) worked out at 0.57 % w/w; in data set [3] (pH 7.0) it was 0.28 % w/w. Moreover, the “Applied dose permeated the skin” value in data set [5] is given as “about 2%”.
